Like-named read-outs stand apart in the source and are kept apart here.
Tests used:
[1] = system: tobacco cutworm (Spodoptera litura); experiment: Mortality of third-instar larvae of tobacco cutworm on cabbage (Test Example 1); format: in vivo; details: 72 h
Method: Ten third-instar larvae of tobacco cutworm (Spodoptera litura) were placed on a cabbage (one-month-old seedling) planted in a pot, and a 50% emulsion of the compound to be tested was diluted to a specified concentration and applied to the leaves of the plant to fully wet them. The test compound of each specified concentration was tested on two pots.

[2] = system: green rice leafhopper (Nephotettix cincticeps); experiment: Mortality of female adults of green rice leafhopper on paddy rice (Test Example 2); format: in vivo; details: 72 h
Method: An emulsion of specified concentration was prepared from a 50% wettable powder of the compound to be tested and applied to the leaves of paddy rice (one-month-old seedlings) planted in a pot to fully wet the leaves. After the emulsion had been dried, the pot was covered with a net cage, into which 10 female adults of green rice leafhopper (Nephotettix cincticeps) were released. The compound of each specified concentration was tested on two pots.

[3] = system: house fly (Musca domestica); experiment: Local application to house fly, LD50 by Probit method (Test Example 4); format: in vivo; details: topical
Method: The compound to be tested was dissolved in a predetermined amount of acetone. The solution was diluted to various concentrations and locally applied to house fly (Musca domestica).

[4] = Acute oral toxicity in male mice, LD50 by Litchfield-Wilcoxon method (Test Example 5); details: mouse, in vivo, mortality on the seventh day
Method: Compounds of this invention were tested on male mice for acute toxicity by oral administration.

Compound | mortality at 500 ppm [1] [%] | mortality at 1000 ppm [1] [%] | mortality at 2000 ppm [1] [%] | mortality at 200 ppm ([2]; 200 ppm active ingredient, from 50% wettable powder, three days later, read-out: Mortality) [%] | mortality at 400 ppm ([2]; 400 ppm active ingredient, from 50% wettable powder, three days later, read-out: Mortality) [%] | mortality at 800 ppm ([2]; 800 ppm active ingredient, from 50% wettable powder, three days later, read-out: Mortality) [%] | LD50 ([3]; house fly, locally applied in acetone, mortality 24 hours later, Probit method, read-out: LD50) [mg/kg] | mortality at 200 ppm [2] [%] | mortality at 400 ppm [2] [%] | mortality at 800 ppm [2] [%] | LD50 at 168 h [4] [mg/kg] | LD50 ([3]; 24 h) [mg/kg]
CNC(=O)Oc1cccc2ccccc12 [1-Naphthyl-N--methyl-carbamate, reference compound] | 60 | 80 | 100 | – | – | – | – | – | – | – | – | –
CNC(=O)Oc1ccccc1OC(C)C [2-Isopropoxyphenyl-N--methyl-carbamate, reference compound] | – | – | – | 0 | 0 | 0 | 22.5 | – | – | – | – | –
CN(SN(CC#N)CC#N)C(=O)Oc1cccc2c1OC(C)(C)C2 [Example 1, 2,3-dihydro-2,2-dimethylbenzofuran-7-yl N-[N,N-bis(cyanomethyl)aminosulfenyl]-N-methyl-carbamate] | 65 | 80 | 100 | – | – | – | – | 50 | 85 | 100 | 58 | 21.3
CCOC(=O)CN(CC(=O)OCC)SN(C)C(=O)Oc1cccc2c1OC(C)(C)C2 [Example 2, 2,3-dihydro-2,2-dimethylbenzofuran-7-yl N-[N,N-bis(ethoxycarbonylmethyl)aminosulfenyl]-N-methylcarbamate] | 60 | 70 | 100 | – | – | – | – | 45 | 85 | 100 | 140 | 58.8
COC(=O)CN(CC(=O)OC)SN(C)C(=O)Oc1cccc2c1OC(C)(C)C2 [Example 3] | 65 | 80 | 100 | – | – | – | – | 45 | 85 | 100 | 145 | 40
CC(C)OC(=O)CN(CC(=O)OC(C)C)SN(C)C(=O)Oc1cccc2c1OC(C)(C)C2 [Example 4] | 60 | 70 | 100 | – | – | – | – | 40 | 70 | 100 | 122 | 28.9
CN(SN(CC(=O)OC1CCCCC1)CC(=O)OC1CCCCC1)C(=O)Oc1cccc2c1OC(C)(C)C2 [Example 5] | 65 | 80 | 100 | – | – | – | – | 45 | 80 | 100 | 90 | 75.6
CCOC(=O)CCN(CCC(=O)OCC)SN(C)C(=O)Oc1cccc2c1OC(C)(C)C2 [Example 6, 2,3-dihydro-2,2-dimethylbenzofuran-7-yl N-[N,N-bis(ethoxycarbonylethyl)aminosulfenyl]-N-methylcarbamate] | 60 | 75 | 100 | – | – | – | – | 55 | 75 | 95 | 135 | 38.3
CN(SN(CCC#N)CCC#N)C(=O)Oc1cccc2c1OC(C)(C)C2 [Example 7, 2,3-dihydro-2,2-dimethylbenzofuran-7-yl N-[N,N-bis(cyanoethyl)aminosulfenyl]-N-methyl-carbamate] | 60 | 75 | 100 | – | – | – | – | 50 | 70 | 90 | 75 | 54
CCOC(=O)CN(CCC#N)SN(C)C(=O)Oc1cccc2c1OC(C)(C)C2 [Example 8] | 75 | 85 | 100 | – | – | – | – | 60 | 85 | 95 | 105 | 24.6
CCOC(=O)CCN(CC(=O)OCC)SN(C)C(=O)Oc1cccc2c1OC(C)(C)C2 [Example 9] | 80 | 90 | 100 | – | – | – | – | 60 | 90 | 100 | 158 | 31.7
CCOC(=O)CCCN(CC(=O)OCC)SN(C)C(=O)Oc1cccc2c1OC(C)(C)C2 [Example 10] | 75 | 85 | 100 | – | – | – | – | 60 | 90 | 100 | 115 | 46
CCOC(=O)CN(SN(C)C(=O)Oc1cccc2c1OC(C)(C)C2)C(CC)C(=O)OCC (stereo not drawn) [Example 11] | 70 | 80 | 100 | – | – | – | – | 55 | 80 | 95 | 93 | 93.9
CCCCN(CC(=O)OCC)SN(C)C(=O)Oc1cccc2c1OC(C)(C)C2 [Example 12, 2,3-dihydro-2,2-dimethylbenzofuran-7-yl N-(N-butyl-N-ethoxycarbonylmethylaminosulfenyl)-N-methyl-carbamate] | 75 | 90 | 100 | – | – | – | – | 65 | 90 | 100 | 125 | 16.7
CCOC(=O)CN(SN(C)C(=O)Oc1cccc2c1OC(C)(C)C2)c1ccccc1 [Example 13, 2,3-dihydro-2,2-dimethylbenzofuran-7-yl N-(N-phenyl-N-ethoxycarbonylmethylaminosulfenyl)-N-methylcarbamate] | 75 | 90 | 100 | – | – | – | – | 65 | 90 | 100 | 115 | 12.5
CCOC(=O)CN(C)SN(C)C(=O)Oc1cccc2c1OC(C)(C)C2 [Example 14, 2,3-Dihydro-2,2-dimethylbenzofuran-7-yl N-(N-methyl-N-ethoxycarbonylmethylaminosulfenyl)-N-methylcarbamate] | 75 | 90 | 100 | – | – | – | – | 65 | 90 | 100 | 120 | 9.9
CCOC(=O)CN(SN(C)C(=O)Oc1cccc2c1OC(C)(C)C2)C(C)C [Example 15] | 75 | 90 | 100 | – | – | – | – | 65 | 90 | 100 | 110 | 33
CCOC(=O)CN(SN(C)C(=O)Oc1cccc2c1OC(C)(C)C2)C(C)CC (stereo not drawn) [Example 16] | 65 | 85 | 100 | – | – | – | – | 60 | 80 | 100 | 110 | 44.4
CCCCCCCCN(CC(=O)OCC)SN(C)C(=O)Oc1cccc2c1OC(C)(C)C2 [Example 17] | 60 | 80 | 100 | – | – | – | – | 55 | 75 | 95 | 69 | 42.3
CCOC(=O)CN(SN(C)C(=O)Oc1cccc2c1OC(C)(C)C2)C1CCCCC1 [Example 18] | 75 | 90 | 100 | – | – | – | – | 65 | 90 | 100 | 135 | 32.5
CCOC(=O)CN(Cc1ccccc1)SN(C)C(=O)Oc1cccc2c1OC(C)(C)C2 [Example 19] | 65 | 85 | 100 | – | – | – | – | 60 | 80 | 100 | 108 | 22.2
CCOC(=O)CN(Cc1ccc(Cl)cc1)SN(C)C(=O)Oc1cccc2c1OC(C)(C)C2 [Example 20] | 65 | 85 | 100 | – | – | – | – | 60 | 80 | 100 | 75 | 61.9
CCOC(=O)CN(SN(C)C(=O)Oc1cccc2c1OC(C)(C)C2)c1cccc(C)c1 [Example 21] | 75 | 90 | 100 | – | – | – | – | 65 | 90 | 100 | 105 | 10.4
CCOC(=O)CN(SN(C)C(=O)Oc1cccc2c1OC(C)(C)C2)c1ccc(OC)cc1 [Example 22] | 65 | 85 | 100 | – | – | – | – | 60 | 80 | 100 | 88 | 45.2
